Results on two compounds are retold here after patent publication US5559106A, “Heterocyclic compounds, their use and preparation” (Novo Nordisk A/S, priority 1993, dated 1996).

One assay deals with AMPA type receptors. Briefly: 3H-AMPA Binding (Test 1), rat cerebral cortical membrane homogenate. The following applies: 3H-AMPA 5 nM, rat cerebral cortical membranes, pH 7.1, 0° C., 30 min; read-out: TEST 1 IC50 (displacement of 50% of the specific binding of 3H-AMPA). As to the method: (§1) The pharmacological properties of the compounds of the present invention can be illustrated by determining their capability for displacing radioactively labelled 2-amino-3-hydroxy-5-methyl-4-isoxazolepropionic acid (AMPA) from the AMPA type receptors.
The displacement activity of the compounds may be shown by determining the IC50 value which represents the concentration (μM) which causes a displacement of 50% of the specific binding of ^3 H-AMPA.
^3 H-AMPA Binding (Test 1)
500 μl of thawed rat cerebral cortical membrane homogenate in Tris-HCl (30 mM), CaCl2 (2.5 mM) and KSCN (100 mM) pH 7.1 were incubated at 0° C. for 30 min. with 25 μl ^3 H-AMPA (5 nM final concentration) and the test compound and buffer. Nonspecific binding was determined by incubation with L-glutamic acid (600 μM final concentration). The binding reaction was terminated by adding 5 ml of ice-cold buffer followed by filtration through Whatman GF/C glass fibre filters and 2×5 ml wash with ice-cold buffer. Bound radioactivity was measured by scintillation counting. IC50 was determined by Hill analysis of at least four concentrations of test compound.

For assay [1], the system named is quisqualic acid stimulated spreading depression in chicken retina. Briefly: Spreading Depression (Test 2), quisqualate stimulated, chicken retina. In kind it is cell-based. As to conditions: Gallus gallus, 0.25 h, quisqualate 1 μg/ml, 26° C., 15 min incubation with test compound, read-out: TEST 2 IC50 (50% maximal inhibition of quisqualic acid stimulated spreading depression). As to the method: as §1
The antagonism is measured by determining the IC50 value which represents the concentration which produces a 50% maximal inhibition of quisqualic acid stimulated spreading depression in chicken retina.
Spreading Depression (Test 2)
Chicks (3-10 days old) were decapitated, the eyes enucleated and sectioned along the equatorial plane. […]
The eyes were initially incubated in normal P.S.S. for 15-30 min. and then transferred to P.S.S. containing quisqualate (1 μg/ml). […] The time taken for an S.D. to start in each eye was measured.
After a further 15 min. of incubation in normal P.S.S. the eyes were transferred to normal P.S.S. containing the test compound and incubated for 15 min. […] The time taken for an S.D. to start in each eye was measured again. The eyes were then placed back in normal P.S.S. and after 15 min. the time taken for S.D. to start was measured again, in order to assess the degree of recovery from any drug effects. […]

For the compound `O=c1[nH]c2cc(C(F)(F)F)ccc2n2c(CP(=O)(O)O)nnc12` [Example 20, 1-Phosphonomethyl-7-trifluoromethyl[1,2,4]triazolo[4,3-a]quinoxalin-4(5H)-one], the figures for the IC50 (on AMPA type receptors; in assay [1]) were 260 nM and 400 nM, respectively.

Consider `O=c1[nH]c2c3ccccc3ccc2n2c(CP(=O)(O)O)nnc12` [Example 30, 3-Phosphonomethylbenzo[f]-1,2,4-triazolo[4,3-a]quinoxalin-12(11H)-one], for which the figures for the IC50 (on AMPA type receptors; in assay [1]) were 480 nM and 1400 nM, respectively.
